According to the supplement of paper PMC3974653:
Structures can show the parent of a compound that is named as a salt.

Test system: MTT (mouse pheochromocytoma)
Assay: IC50 of cell viability (ATP content)
Settings: (24 or 48 h)
Procedure, shortened: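 MTT mouse pheochromocytoma cells were seeded into white 1536-well plates at 5 µl per well from a 200,000 cells/ml suspension in DMEM with 5% FBS and 1% horse serum, then cultured overnight at 37°C, 5% CO2. A pintool added 23 nl of library compound in DMSO at 8 concentrations (final 0.5 nM to 46 µM) for 24 or 48 hrs, and CellTiter-Glo ATP luminescence was read after 15 minutes. Signals were scaled so that positive-control wells equalled 100% and DMSO wells 0%. IC50 values were derived by fitting a four-parameter logistic curve.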

| IC50 of cell viability | SMILES |
| --- | --- |
| > 46 µM | O=S(=O)([O-])O.[Na+] [Sodium hydrogen sulfate] |
| > 46 µM | [O-]Cl [Sodium hypochlorite] |
| > 46 µM | Cc1ccc(S(=O)(=O)[O-])cc1C [Sodium xylenesulfonate] |
| > 46 µM | Cc1cc(CC(=O)[O-])n(C)c1C(=O)c1ccc(Cl)cc1 [Sodium zomepirac] |
| > 46 µM | CC(C)=CCOc1ccc(/C=C/C(=O)c2ccc(OCC=C(C)C)cc2OCC(=O)O)cc1 [Sofalcone] |
| > 46 µM | CN(C)[C@@H]\1[C@H]2C[C@H]3\C(=C(\O)[C@@]2(O)C(=O)\C(=C1O)C(=O)NCN4CCCC4)C(=O)C5=C(C=CC=C5O)[C@]3(C)O [Solvocillin] |
| > 46 µM | C/C=C/C=C/C(=O)O [Sorbic acid] |
| > 46 µM | O=C1NC(=O)[C@@]2(CCOc3ccc(F)cc32)N1 [Sorbinil] |
| > 46 µM | CCCCCCCCCCCCCCCCCC(=O)OC[C@@H](O)[C@H]1OC[C@H](O)[C@H]1O [Sorbitan monostearate] |
| > 46 µM | CCCCCCCC/C=C\CCCCCCCC(=O)OC[C@@H](O)[C@H]1OC[C@H](O)[C@H]1O [Sorbitan, mono-(9Z)-9-octadecenoate] |
| > 46 µM | C1CC[N@]2C[C@@H]3C[C@@H](CN4CCCC[C@H]34)[C@H]2C1 [Sparteine (-)] |
| > 46 µM | CN[C@H]1[C@@H](O)[C@@H](NC)[C@@H]2O[C@]3(O)C(=O)C[C@@H](C)O[C@H]3O[C@H]2[C@H]1O [Spectinomycin dihydrochloride] |
| > 46 µM | CO[C@H]1[C@@H](O[C@@H]2O[C@@H](C)[C@@H](O[C@H]3C[C@](C)(O)[C@H](O)[C@H](C)O3)[C@@H](N(C)C)[C@H]2O)[C@H](CC=O)C[C@@H](C)[C@@H](O[C@H]2CC[C@H](N(C)C)[C@H](C)O2)/C=C\C=C/C[C@@H](C)OC(=O)C[C@H]1O [Spiramycin] |
| > 46 µM | CCOC(=O)[C@H](CCc1ccccc1)NC(C)C(=O)N1CC2(CC1C(=O)O)SCCS2 (stereo partly specified) [Spirapril] |
| > 46 µM | CC(=O)SC1C\C2=C\C(=O)CCC2(C)C3CCC4(C)C(CCC45CCC(=O)O5)C13 (stereo unspecified) [Spironolactone] |
| > 46 µM | OC(=O)CC/1=N/N(CC2=CC=C(Br)C=C2F)C(=O)C3=CC=CC=C13 [Statil] |
| > 46 µM | CCCCCCCCCCCCCCCCCC(=O)O [Stearic acid] |
| > 46 µM | CC(C)(C)C(O)C=Cc1ccc2c(c1)OCO2 (stereo unspecified) [Stiripentol] |
| > 46 µM | CN[C@@H]1[C@H](O[C@H]2[C@H](O[C@H]3[C@H](O)[C@@H](O)[C@H](NC(=N)N)[C@@H](O)[C@@H]3NC(=N)N)O[C@@H](C)[C@]2(O)C=O)O[C@@H](CO)[C@H](O)[C@H]1O [Streptomycin sulfate] |
| > 46 µM | CN(N=O)C(=O)N[C@H]1[C@H](O)[C@H](O)[C@H](CO)O[C@@H]1O [Streptozotocin] |
| > 46 µM | C=Cc1ccccc1 [Styrene] |
| > 46 µM | C[N+](C)(C)CCOC(=O)CCC(=O)OCC[N+](C)(C)C.[Cl-].[Cl-] [Succinylcholine chloride] |
| > 46 µM | O=C(O)CCC(=O)Nc1ccc([S+](=O)([O-])Nc2nccs2)cc1 [Succinylsulfathiazole] |

| IC50 of cell viability | SMILES |
| --- | --- |
| > 46 µM | OC[C@@H]1O[C@@](CO)(OC2O[C@H](CO)[C@@H](O)[C@H](O)[C@@H]2O)[C@@H](O)[C@@H]1O (stereo partly specified) [Sucralox] |
| > 46 µM | O=S(=O)([O-])OCC1OC(OC2(COS(=O)(=O)[O-])OC(COS(=O)(=O)[O-])C(OS(=O)(=O)[O-])C2OS(=O)(=O)[O-])C(OS(=O)(=O)[O-])C(OS(=O)(=O)[O-])C1OS(=O)(=O)[O-] (stereo unspecified) [Sucrose Octasulfate, Sodium Salt] |
| > 46 µM | CC1(C)C(C(=O)[O-])N2C(=O)CC2[S+]1(=O)[O-] (stereo unspecified) [Sulbactam] |
| > 46 µM | S=C1SCN(Cc2ccccc2)CN1Cc1ccccc1 [Sulbentina] |
| > 46 µM | CCOC(=O)c1ccc(NC(=O)CN2CCCCC2)cc1 [Sulcaine] |
| > 46 µM | Clc1ccc(CS[C@@H](Cn2ccnc2)c2ccc(Cl)cc2Cl)cc1 [Sulconazole nitrate] |
| > 46 µM | Nc1ccc([S+](=O)([O-])Nc2ccccc2)cc1 [Sulfabenz] |
| > 46 µM | Nc1ccc([S+](=O)([O-])NC(=O)c2ccccc2)cc1 [Sulfabenzamide] |
| > 46 µM | CC(=O)N[S+](=O)([O-])c1ccc(N)cc1 [Sulfacetamide] |
| > 46 µM | Nc1ccc([S+](=O)([O-])Nc2ccc(Cl)nn2)cc1 [Sulfachloropyridazine] |
| > 46 µM | Nc1ccc([S+](=O)([O-])Nc2ncccn2)cc1 [Sulfadiazine] |
| > 46 µM | COc1cc(N[S+](=O)([O-])c2ccc(N)cc2)nc(OC)n1 [Sulfadimethoxine] |
| > 46 µM | COc1ncnc(N[S+](=O)([O-])c2ccc(N)cc2)c1OC [Sulfadoxine] |
| > 46 µM | CCc1nnc(N[S+](=O)([O-])c2ccc(N)cc2)s1 [Sulfaethidole] |
| > 46 µM | CCOc1ccc(N[S+](=O)([O-])c2ccc(N)cc2)nn1 [Sulfaethoxypyridazine] |
| > 46 µM | NC(N)=N[S+](=O)([O-])c1ccc(N)cc1 [Sulfaguanidine] |
| > 46 µM | COc1nccnc1N[S+](=O)([O-])c1ccc(N)cc1 [Sulfalene] |
| > 46 µM | Cc1ccnc(N[S+](=O)([O-])c2ccc(N)cc2)n1 [Sulfamerazine] |
| > 46 µM | COc1cnc(N[S+](=O)([O-])c2ccc(N)cc2)nc1 [Sulfameter] |
| > 46 µM | Cc1cc(C)nc(N[S+](=O)([O-])c2ccc(N)cc2)n1 [Sulfamethazine] |
| > 46 µM | Cc1nnc(N[S+](=O)([O-])c2ccc(N)cc2)s1 [Sulfamethizole] |
| > 46 µM | Cc1cc(N[S+](=O)([O-])c2ccc(N)cc2)no1 [Sulfamethoxazole] |
| > 46 µM | COc1ccc(N[S+](=O)([O-])c2ccc(N)cc2)nn1 [Sulfamethoxypyridazine] |

| IC50 of cell viability | SMILES |
| --- | --- |
| > 46 µM | COc1cc(N[S+](=O)([O-])c2ccc(N)cc2)ncn1 [Sulfamonomethoxine] |
| > 46 µM | Nc1ccc([S+](N)(=O)[O-])cc1 [Sulfanilamide] |
| > 46 µM | Nc1ccc([S+](=O)([O-])Nc2ccnn2-c2ccccc2)cc1 [Sulfaphenazole] |
| > 46 µM | Nc1ccc([S+](=O)([O-])Nc2ccccn2)cc1 [Sulfapyridine] |
| > 46 µM | Nc1ccc([S+](=O)([O-])Nc2nccs2)cc1 [Sulfathiazole] |
| > 46 µM | O=C1C(CC[S+]([O-])c2ccccc2)C(=O)N(c2ccccc2)N1c1ccccc1 (stereo unspecified) [Sulfinpyrazone] |
| > 46 µM | Cc1cc(NS(=O)(=O)c2ccc(N)cc2)nc(C)n1 [Sulfisomidine] |
| > 46 µM | Cc1noc(N[S+](=O)([O-])c2ccc(N)cc2)c1C [Sulfisoxazole diolamine] |
| > 46 µM | Cc1noc(N[S+](=O)([O-])c2ccc(N)cc2)c1C [Sulfisoxazole] |
| > 46 µM | CSc1ccc(/C=C2/C(C)=C(CC(=O)O)c3cc(F)ccc32)cc1 [Sulindac sulfide] |
| > 46 µM | CC1=C(CC(=O)O)c2cc(F)ccc2/C1=C\c1ccc([S+](C)(=O)[O-])cc1 [Sulindac sulfone] |
| > 46 µM | CC1=C(CC(=O)O)c2cc(F)ccc2/C1=C\c1ccc([S+](C)[O-])cc1 (stereo unspecified) [Sulindac] |
| > 46 µM | COc1cc(O)c(C(=O)c2ccccc2)cc1[S+](=O)([O-])O [Sulisobenzone] |
| > 46 µM | CS(=O)(=O)NC(=O)CCC/C=C\C[C@H]1C(=O)C[C@@H](O)[C@@H]1/C=C/[C@@H](O)COc1ccccc1 [Sulprostone] |
| > 46 µM | CC1(C)S[C@@H]2[C@H](NC(=O)[C@H](N)c3ccccc3)C(=O)N2[C@@H]1C(=O)OCOC(=O)[C@@H]1N2C(=O)C[C@@H]2S([O-])([O-])C1(C)C [Sultamicillin tosylate] |
| > 46 µM | CCN1CCCC1CNC(=O)c1cc([S+](=O)([O-])CC)ccc1OC (stereo unspecified) [Sultopride Hydrochloride] |
| > 46 µM | CCN1CCC[C@@H]1CNC(=O)c1cc([S+](=O)([O-])CC)ccc1OC [Sultopride Hydrochloride] |
| > 46 µM | CCN(CC)CCNC(=O)c1c(C)[nH]c(/C=C2\C(=O)Nc3ccc(F)cc32)c1C [Sunitinib malate] |
| > 46 µM | C[C@@H](C(=O)O)c1ccc(C(=O)c2cccs2)cc1 [Suprofen] |
| > 46 µM | CCCCC1(COC(=O)CCC(=O)O)C(=O)N(c2ccccc2)N(c2ccccc2)C1=O [Suxibuzone] |
| > 46 µM | CCOC(=O)Oc1c(OC)cc(C(=O)O[C@@H]2C[C@H]3CN4CCc5c([nH]c6cc(OC)ccc56)[C@@H]4C[C@@H]3[C@@H](C(=O)OC)[C@H]2OC)cc1OC [Syrosingopine] |
| > 46 µM | C[S+](=O)([O-])Nc1cc2occ(NC=O)c(=O)c2cc1Oc1ccccc1 [T 614] |
| > 46 µM | Nc1c2c(nc3ccccc13)CCCC2 [TACRINE] |

| SMILES | IC50 of cell viability |
| --- | --- |
| CN1C(=S)CN=C(c2ccccc2)c2cc(Cl)ccc21 [Sulazepam] | > 46 µM |
| O=c1n(Cl)c(=O)n(Cl)c(=O)n1Cl [Symclosene] | > 46 µM |
